The source of these data is patent publication US9718823B2, “2, 6-Di-nitrogen-containing substituted purine derivative, and preparation method, pharmaceutical composition and use thereof” (Zhejiang Medicine Co., Ltd. Xinchang Pharmaceutical Factory, priority 2013, dated 2017).

Common to all, as to assay type: biochemical
One assay has as its target T1, PI3Kδ (Homo sapiens, UniProt O00329).
T1 construct: purchased Millipore 14-604
Nature of the assay: Inhibitory activity to PI3K δ, PI 3-Kinase (human) HTRF Assay kit. As to conditions: read-out: Inhibition rate % to PI3Kδ; for inhibition at 1 µM: 1 μM (Table 7); for inhibition at 10 µM: 10 μM (Table 7). The method, then: Study on the inhibitory activity of the compounds of present invention to PI 3κα, PI3κδ and PI3κγ.
(§1) PI 3-Kinase (human) HTRF™ Assay kit (Cat.33-017, Millipore)
For example, 10 μL DTT is added into 500 μL 4× Reaction Buffer, and water is added to 1.5 mL.
The Test compounds are dissolved with DMSO to 1 mM as storage liquid. 2 μL of each of storage liquid is added into 48 μL ddH2O, to obtain the 40 μM compounds solution containing 4% DMSO. After mixing, 3 μL of each of the solution is added into 27 μL 4% DMSO (in ddH2O) to obtain the 4 μM compounds solution. […]
The screening concentration of PI 3k δ kinase: 2 ng/well,
(§2) Kinase is diluted with 2×PIP2 operating fluid, the concentration of kinase operating fluid is 2 times of screening concentration.
The concentration of ATP is 100 μM in 20 μL kinase reaction system.
(§3) Stop A and Stop B are mixed according to the proportion of 3:1, and are placed for 2 hours at room temperature to obtain the stop solution available.
(§4) DM C, DM A and DM B are mixed according to the proportion of 18:1:1, and are placed for 2 hours at room temperature to obtain the detection solution available.
On the technique in general: Time-resolved FRET reads energy transfer from a long-lived donor to a nearby acceptor.

A further assay deals with T2, PI3 K γ (Homo sapiens, UniProt P48736).
T2 construct: purchased Biology, Medicilon
As to the kind of experiment: Inhibitory activity to PI3K γ, PI 3-Kinase (human) HTRF Assay kit. As to conditions: read-out: Inhibition rate % to PI3 K γ.
Excerpt: (§5) Study on the inhibitory activity of the compounds of present invention to PI 3κα, PI3κδ and PI3κγ. Two or three concentrations of the compounds are selected to preliminary screening to calculate respectively the activity inhibition rate of the compounds of corresponding concentrations to enzyme, then the compounds with better activity are selected by preliminary screening for IC50 test.
as §1
PI 3k γ (Biology, Medicilon)
(§6) 4× Reaction Buffer (Cat.33-002, Millipore) is diluted with ddH2O to 1.33×, and 1M DTT is added to make the final concentration as 6.67 mM. For example, 10 μL DTT is added into 500 μL 4× Reaction Buffer, and water is added to 1.5 mL.
(§7) The Test compounds are dissolved with DMSO to 1 mM as storage liquid. 2 μL of each of storage liquid is added into 48 μL ddH2O, to obtain the 40 μM compounds solution containing 4% DMSO. After mixing, 3 μL of each of the solution is added into 27 μL 4% DMSO (in ddH2O) to obtain the 4 μM compounds solution. 5 μL of each dilute solution is added into 384-well plates, then the final concentration of the compounds in the 20 μL final kinase reaction system is 10 μM and 1 μM respectively contained 1% DMSO. The dilution methods of compounds are similar to the preliminary screening in IC50 test.
(§8) 2×PIP2 working fluid is prepared with 1.33× reaction buffer to the final concentration of 20 μM.
The screening concentration of PI 3k γ kinase: 80 ng/well,
as §2
(§9) 10 mM ATP is diluted with 1.33× reaction buffer to 400 μM. The concentration of ATP is 100 μM in 20 μL kinase reaction system.
as §3, §4

For the next assay, the target named is T3, PDGFR β enzyme (Homo sapiens, UniProt P09619).
T3 construct: purchased Invitrogen P3082
Nature of the assay: Inhibitory activity to PDGFR β enzyme, HTRF kinEASE TK kit. Conditions: read-out: Inhibition rate % (PDGFR β). How it is done:
HTRF kinEASE TK (Cat.62TK0PEC, Cisbio)
PDGFR β enzyme (Cat.P3082, Invitrogen)
1 mL 1×Kinase Buffer includes 200 μL 5×Enzyme buffer, 5 μL 1M MgCl2, 1 μL 1M DTT, 1 μL 1M MnCl2, 20 μL 2500 nM SEB, 773 μL ddH2O.
TK-Substrate and ATP are diluted to 2.5 times of reaction concentration with 1×PDGFR β Kinase Buffer.
5×PDGFR β enzyme working solution is prepared with 1×PDGFR β kinase buffer.
4×Sa-XL665 working solution is prepared with Detection Buffer.
TK-Ab-Cryptate is diluted 100 times with Detection Buffer to use as working solution.

Another assay addresses T4, PI3K α (Homo sapiens, UniProt P42336).
T4 construct: purchased Millipore 14-602
Nature of the assay: Inhibitory activity to PI3K α, PI 3-Kinase (human) HTRF Assay kit. Conditions: read-out: % Inhibition Rate to PI3K α.
Excerpt: as §5, §1
PI 3k α (Cat.14-602, Millipore)
as §6, §7, §8
The screening concentration of PI 3k α kinase: 8 ng/well,
as §2, §9, §3, §4

T2 sequence (P48736 whole entry): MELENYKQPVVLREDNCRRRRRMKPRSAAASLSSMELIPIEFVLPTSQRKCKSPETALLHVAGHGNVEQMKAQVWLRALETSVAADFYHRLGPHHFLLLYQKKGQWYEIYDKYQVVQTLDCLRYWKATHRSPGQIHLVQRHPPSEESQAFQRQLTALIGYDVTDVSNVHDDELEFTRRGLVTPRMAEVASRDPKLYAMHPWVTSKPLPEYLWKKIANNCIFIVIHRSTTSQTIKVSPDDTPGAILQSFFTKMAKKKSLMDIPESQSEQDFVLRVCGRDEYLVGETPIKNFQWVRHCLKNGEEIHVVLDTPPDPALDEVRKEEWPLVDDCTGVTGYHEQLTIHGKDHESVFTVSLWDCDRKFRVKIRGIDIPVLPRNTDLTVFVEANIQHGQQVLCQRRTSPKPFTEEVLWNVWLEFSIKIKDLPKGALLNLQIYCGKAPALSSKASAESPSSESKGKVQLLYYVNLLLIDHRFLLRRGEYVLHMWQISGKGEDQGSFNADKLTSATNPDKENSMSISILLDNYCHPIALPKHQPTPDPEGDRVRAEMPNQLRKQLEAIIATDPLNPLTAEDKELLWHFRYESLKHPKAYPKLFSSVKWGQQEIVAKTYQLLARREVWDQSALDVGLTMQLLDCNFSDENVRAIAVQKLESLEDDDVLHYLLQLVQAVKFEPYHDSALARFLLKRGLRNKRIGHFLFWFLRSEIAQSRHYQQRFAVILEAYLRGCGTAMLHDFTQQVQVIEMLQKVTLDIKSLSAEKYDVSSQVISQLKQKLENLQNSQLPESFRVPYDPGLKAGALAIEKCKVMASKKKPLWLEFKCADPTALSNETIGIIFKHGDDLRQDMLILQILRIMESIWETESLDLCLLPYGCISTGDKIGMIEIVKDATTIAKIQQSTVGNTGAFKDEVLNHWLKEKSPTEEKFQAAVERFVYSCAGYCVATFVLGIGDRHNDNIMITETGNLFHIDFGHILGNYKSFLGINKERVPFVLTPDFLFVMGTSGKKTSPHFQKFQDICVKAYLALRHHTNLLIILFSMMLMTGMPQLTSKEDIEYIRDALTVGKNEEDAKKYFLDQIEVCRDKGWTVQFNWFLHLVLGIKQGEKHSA
T4 sequence (P42336 whole entry): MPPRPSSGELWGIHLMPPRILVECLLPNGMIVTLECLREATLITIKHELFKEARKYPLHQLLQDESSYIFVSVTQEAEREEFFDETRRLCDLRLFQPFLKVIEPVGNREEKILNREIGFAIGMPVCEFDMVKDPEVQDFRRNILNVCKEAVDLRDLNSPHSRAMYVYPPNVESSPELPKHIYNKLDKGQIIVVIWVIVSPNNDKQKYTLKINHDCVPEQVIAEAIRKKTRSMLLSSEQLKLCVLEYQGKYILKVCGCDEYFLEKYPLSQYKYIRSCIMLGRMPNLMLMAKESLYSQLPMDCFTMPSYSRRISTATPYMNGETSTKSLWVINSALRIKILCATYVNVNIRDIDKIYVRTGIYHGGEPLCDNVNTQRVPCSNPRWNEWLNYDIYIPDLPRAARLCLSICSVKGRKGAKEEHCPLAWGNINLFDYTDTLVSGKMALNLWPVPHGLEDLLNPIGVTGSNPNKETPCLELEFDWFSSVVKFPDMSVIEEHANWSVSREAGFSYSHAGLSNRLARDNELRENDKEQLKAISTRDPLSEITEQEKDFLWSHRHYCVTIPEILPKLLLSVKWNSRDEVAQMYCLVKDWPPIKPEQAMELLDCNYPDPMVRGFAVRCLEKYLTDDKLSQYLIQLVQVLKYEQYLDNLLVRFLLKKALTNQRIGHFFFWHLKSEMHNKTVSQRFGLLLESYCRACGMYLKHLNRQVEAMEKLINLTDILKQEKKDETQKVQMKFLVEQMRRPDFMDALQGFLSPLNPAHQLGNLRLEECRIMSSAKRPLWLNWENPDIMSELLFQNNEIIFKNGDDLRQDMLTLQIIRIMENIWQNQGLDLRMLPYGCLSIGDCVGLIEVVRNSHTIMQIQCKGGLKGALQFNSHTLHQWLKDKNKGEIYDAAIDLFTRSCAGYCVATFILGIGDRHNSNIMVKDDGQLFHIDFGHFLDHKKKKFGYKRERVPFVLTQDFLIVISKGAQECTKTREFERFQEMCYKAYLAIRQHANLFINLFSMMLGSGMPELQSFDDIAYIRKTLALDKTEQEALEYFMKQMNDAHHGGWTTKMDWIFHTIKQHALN
T4 sequence (P27986 whole entry partner): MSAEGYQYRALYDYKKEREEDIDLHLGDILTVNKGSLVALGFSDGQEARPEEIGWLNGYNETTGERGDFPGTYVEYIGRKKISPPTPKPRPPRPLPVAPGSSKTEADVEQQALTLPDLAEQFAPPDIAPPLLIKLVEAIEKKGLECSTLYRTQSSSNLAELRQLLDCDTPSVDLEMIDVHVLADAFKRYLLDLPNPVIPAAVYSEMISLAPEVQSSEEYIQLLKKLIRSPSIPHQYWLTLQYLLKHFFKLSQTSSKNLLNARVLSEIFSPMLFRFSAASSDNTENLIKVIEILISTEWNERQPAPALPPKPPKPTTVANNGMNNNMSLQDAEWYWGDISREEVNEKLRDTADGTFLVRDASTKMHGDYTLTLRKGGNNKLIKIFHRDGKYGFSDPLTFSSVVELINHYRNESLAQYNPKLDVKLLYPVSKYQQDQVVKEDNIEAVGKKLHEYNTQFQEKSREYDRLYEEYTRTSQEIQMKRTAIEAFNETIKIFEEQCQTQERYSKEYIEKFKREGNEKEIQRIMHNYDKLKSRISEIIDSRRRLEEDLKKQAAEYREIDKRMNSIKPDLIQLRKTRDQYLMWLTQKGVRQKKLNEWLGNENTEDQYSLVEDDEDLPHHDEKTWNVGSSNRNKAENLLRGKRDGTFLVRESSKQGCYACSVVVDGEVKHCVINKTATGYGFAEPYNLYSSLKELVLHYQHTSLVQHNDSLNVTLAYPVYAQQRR
T3 sequence (P09619 33-1106): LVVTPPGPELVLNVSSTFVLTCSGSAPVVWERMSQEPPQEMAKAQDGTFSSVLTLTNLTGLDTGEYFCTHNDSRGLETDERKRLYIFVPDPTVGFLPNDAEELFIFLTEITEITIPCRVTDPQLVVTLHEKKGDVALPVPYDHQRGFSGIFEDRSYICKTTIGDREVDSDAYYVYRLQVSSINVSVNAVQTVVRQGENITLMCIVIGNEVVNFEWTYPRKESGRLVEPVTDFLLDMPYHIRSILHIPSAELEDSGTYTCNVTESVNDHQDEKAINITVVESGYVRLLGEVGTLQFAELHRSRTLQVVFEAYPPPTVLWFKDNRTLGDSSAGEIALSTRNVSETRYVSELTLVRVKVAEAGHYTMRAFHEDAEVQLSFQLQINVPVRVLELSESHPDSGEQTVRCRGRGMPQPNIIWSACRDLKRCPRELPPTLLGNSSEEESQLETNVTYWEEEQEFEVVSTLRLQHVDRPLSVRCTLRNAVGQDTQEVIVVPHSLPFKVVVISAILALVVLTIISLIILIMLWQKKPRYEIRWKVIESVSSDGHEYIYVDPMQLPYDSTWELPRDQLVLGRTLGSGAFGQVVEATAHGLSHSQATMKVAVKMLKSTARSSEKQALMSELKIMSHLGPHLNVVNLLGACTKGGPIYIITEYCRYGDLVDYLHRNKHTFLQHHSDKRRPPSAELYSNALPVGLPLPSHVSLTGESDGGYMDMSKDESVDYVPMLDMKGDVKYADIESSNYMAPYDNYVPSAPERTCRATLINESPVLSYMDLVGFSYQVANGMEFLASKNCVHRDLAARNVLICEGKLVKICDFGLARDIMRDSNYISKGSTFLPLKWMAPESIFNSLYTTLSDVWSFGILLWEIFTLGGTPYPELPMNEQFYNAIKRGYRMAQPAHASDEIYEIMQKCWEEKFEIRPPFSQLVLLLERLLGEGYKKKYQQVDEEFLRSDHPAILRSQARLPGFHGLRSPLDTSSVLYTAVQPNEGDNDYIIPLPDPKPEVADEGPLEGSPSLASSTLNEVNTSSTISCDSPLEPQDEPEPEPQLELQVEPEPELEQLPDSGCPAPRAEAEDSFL
T1 sequence (O00329 whole entry): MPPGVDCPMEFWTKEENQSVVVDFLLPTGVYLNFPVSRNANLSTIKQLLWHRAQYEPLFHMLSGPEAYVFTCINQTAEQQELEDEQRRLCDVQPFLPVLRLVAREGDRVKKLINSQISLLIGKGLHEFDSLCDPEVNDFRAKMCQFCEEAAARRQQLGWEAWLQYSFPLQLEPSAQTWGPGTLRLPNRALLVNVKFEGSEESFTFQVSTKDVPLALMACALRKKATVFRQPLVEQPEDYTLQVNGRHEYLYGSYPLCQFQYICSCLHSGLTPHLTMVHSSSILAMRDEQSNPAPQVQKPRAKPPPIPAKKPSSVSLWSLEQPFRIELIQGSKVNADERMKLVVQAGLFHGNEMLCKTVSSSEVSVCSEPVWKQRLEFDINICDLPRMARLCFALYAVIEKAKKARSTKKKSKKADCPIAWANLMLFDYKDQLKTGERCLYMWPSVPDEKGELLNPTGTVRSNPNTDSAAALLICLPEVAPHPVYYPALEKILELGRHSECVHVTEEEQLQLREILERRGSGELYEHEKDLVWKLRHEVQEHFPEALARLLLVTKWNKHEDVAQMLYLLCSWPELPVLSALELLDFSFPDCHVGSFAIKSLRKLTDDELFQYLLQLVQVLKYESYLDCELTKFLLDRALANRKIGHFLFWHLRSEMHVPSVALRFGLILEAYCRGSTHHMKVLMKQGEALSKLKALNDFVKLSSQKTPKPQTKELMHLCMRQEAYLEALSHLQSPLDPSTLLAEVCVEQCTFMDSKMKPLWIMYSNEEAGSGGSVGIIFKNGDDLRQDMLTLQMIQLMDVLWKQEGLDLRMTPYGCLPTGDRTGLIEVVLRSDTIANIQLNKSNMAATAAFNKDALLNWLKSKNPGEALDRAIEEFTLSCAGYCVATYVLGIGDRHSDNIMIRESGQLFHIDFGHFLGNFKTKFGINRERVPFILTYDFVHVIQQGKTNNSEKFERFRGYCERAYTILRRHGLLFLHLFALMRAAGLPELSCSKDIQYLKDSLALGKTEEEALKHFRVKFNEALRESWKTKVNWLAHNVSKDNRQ
T1 sequence (P27986 whole entry partner): as the sequence (P27986 whole entry partner) above

A word on the inhibition: it is the change of the read-out against control, counted positive when it falls. For the compound `COC(=O)c1cccc(-c2ccnc3ccc(Nc4nc(NC5CC5)c5nc[nH]c5n4)cc23)c1` [MED1007-60, 4-(6-(6-(cyclopropylamino)-9H-purine-2-ylamino)quinoline-4-yl) m-methyl benzoate], the inhibition at 1 µM is -2.33% at PI3Kδ, -2.59% at PI3 K γ and -0.63% on PDGFR β enzyme. The inhibition at 10 µM at PI3Kδ came to 34.1%; on PI3 K γ, 4.45%; at PDGFR β enzyme, 10.6%.
For the compound `COc1cccc(-c2ccnc3ccc(Nc4nc(NC5CC5)c5nc[nH]c5n4)cc23)c1` [MED1007-61, N6-cyclopropyl-N2-(4-(3-methoxyphenyl)quinoline-6-yl)-9H-purine-2,6-diamine], the inhibition at 1 µM on PI3Kδ is 16.7%; at PI3 K γ, -8.18%; at PDGFR β enzyme it was 4.72%. Besides, the inhibition at 10 µM on PI3Kδ came to 102%; at PI3 K γ it was 20.4%; at PDGFR β enzyme, 55%.
`Fc1cccc(-c2ccnc3ccc(Nc4nc(NC5CC5)c5nc[nH]c5n4)cc23)c1` [MED1007-64, N6-cyclopropyl-N2-(4-(3-fluorophenyl)quinoline-6-yl)-9H-purine-2,6-diamine]: the inhibition at 1 µM is 14.1% on PI3Kδ, -4.23% on PI3 K γ and -3.26% at PDGFR β enzyme. Further, the inhibition at 10 µM is 88.7% on PI3Kδ, 15.9% at PI3 K γ and 20.1% on PDGFR β enzyme.
Turning to `FC(F)(F)Cn1cnc2c(NC3CC3)nc(Nc3ccc4nccc(-c5ccccc5)c4c3)nc21` [MED1007-65, N6-cyclopropyl-N2-(4-phenylquinoline-6-yl)-9-(2,2,2-trifluoroethyl)-9H-purine-2,6-diamine], the inhibition at 1 µM amounted to 7.48% at PI3Kδ, 1.54% on PI3 K γ, 0.69% at PI3K α and 21.5% on PDGFR β enzyme. Moreover, the inhibition at 10 µM at PI3Kδ stood at 38.4%; on PI3 K γ it was 37.2%; on PI3K α it was 10.2%; on PDGFR β enzyme it was 14%.
`c1ccc(-c2ccnc3ccc(Nc4nc(NC5CC5)c5ncn(C6CCNCC6)c5n4)cc23)cc1` [MED1007-66, N6-cyclopropyl-N2-(4-phenylquinoline-6-yl)-9-(piperidine-4-yl)-9H-purine-2,6-diamine]: the inhibition at 1 µM on PI3Kδ was 4.75%; on PI3 K γ it was 1.48%; on PI3K α, -2.28%; at PDGFR β enzyme, 17%. Moreover, the inhibition at 10 µM at PI3Kδ is 19.8%; at PI3 K γ, -2.46%; at PI3K α, -4.35%; on PDGFR β enzyme it was 14.5%.
As for `COCCCNc1nc(Nc2ccc3nccc(-c4ccccc4)c3c2)nc2[nH]cnc12` [MED1007-67, N6-(3-methoxypropyl)-N2-(4-phenylquinoline-6-yl)-9H-purine-2,6-diamine], the inhibition at 1 µM amounted to 11.3% on PI3Kδ, 0.71% at PI3 K γ, 3.77% on PI3K α and 22.2% at PDGFR β enzyme. The inhibition at 10 µM at PI3Kδ came to 32%; on PI3 K γ, 10.2%; at PI3K α, 37.2%; at PDGFR β enzyme, 18.7%.
In the case of `COCCNc1nc(Nc2ccc3nccc(-c4ccccc4)c3c2)nc2[nH]cnc12` [MED1007-68, N6-(2-methoxyethyl)-N2-(4-phenylquinoline-6-yl)-9H-purine-2,6-diamine], the inhibition at 1 µM was 20.7% on PI3Kδ, -0.02% on PI3 K γ, 7.74% on PI3K α and 18.7% on PDGFR β enzyme. Besides, the inhibition at 10 µM amounted to 42.3% at PI3Kδ, 10.8% on PI3 K γ, 51.9% on PI3K α and 11.7% at PDGFR β enzyme.
Take `OCCNc1nc(Nc2ccc3nccc(-c4ccccc4)c3c2)nc2[nH]cnc12` [MED1007-69, 2-(2-(4-phenylquinoline-6-ylamino)-9H-purine-6-ylamino) ethanol]: the inhibition at 1 µM at PI3Kδ was determined as 28.9%; on PI3 K γ, 1.27%; at PI3K α, 38.8%; on PDGFR β enzyme, 11.7%. Further, the inhibition at 10 µM is 36.4% at PI3Kδ, 21.1% on PI3 K γ, 78.2% at PI3K α and 31.8% on PDGFR β enzyme.
For the compound `NCCNc1nc(Nc2ccc3nccc(-c4ccccc4)c3c2)nc2[nH]cnc12` [MED1007-70, N6-(2-aminoethyl 1)-N2-(4-phenylquinoline-6-yl)-9H-purine-2,6-diamine], the inhibition at 1 µM at PI3Kδ was found to be 41%; at PI3 K γ it was 5.26%; on PI3K α, 26.6%; on PDGFR β enzyme it was 33.4%. The inhibition at 10 µM stood at 51.6% at PI3Kδ, 10.8% on PI3 K γ, 62.5% at PI3K α and 73% at PDGFR β enzyme.
On to `COc1cccc(-c2ccnc3ccc(Nc4nc(NC5CCC5)c5nc[nH]c5n4)cc23)c1` [MED1007-71, N6-cyclobutyl-N2-(4-(3-methoxyphenyl)quinoline-6-yl)-9H-purine-2,6-diamine], for which the inhibition at 1 µM turned out to be 24.4% at PI3Kδ, 2.55% on PI3 K γ, 10.4% at PI3K α and 9.74% on PDGFR β enzyme. For the same compound, the inhibition at 10 µM on PI3Kδ was found to be 64.4%; on PI3 K γ, 47.4%; at PI3K α, 75%; on PDGFR β enzyme, 4.5%.
For `Fc1ccc(-c2ccnc3ccc(Nc4nc(NC5CCC5)c5nc[nH]c5n4)cc23)cc1` [MED1007-72, N6-cyclobutyl-N2-(4-(4-fluorophenyl)quinoline-6-yl)-9H-purine-2,6-diamine], the inhibition at 1 µM at PI3Kδ is 33.9%; at PI3 K γ it was 2.15%; on PI3K α, 8.78%; at PDGFR β enzyme it was 7.25%. Further, the inhibition at 10 µM amounted to 89.5% at PI3Kδ, 42.7% on PI3 K γ, 65.9% on PI3K α and 2.5% on PDGFR β enzyme.
With `c1ccc(-c2ccnc3ccc(Nc4nc(NC5CCCC5)c5nc[nH]c5n4)cc23)cc1` [MED1007-106, N6-cyclopentyl-N2-(4-phenylquinoline-6-yl)-9H-purine-2,6-diamine], at PI3Kδ, the inhibition at 1 µM was 32.9% and the inhibition at 10 µM stood at 89.1%. Also, at PI3K α, the inhibition at 1 µM was 24.4% and the inhibition at 10 µM came out at 97.4%.
The corresponding values for `c1ccc(-c2ccnc3ccc(Nc4nc(OC5CCCCC5)c5nc[nH]c5n4)cc23)cc1` [MED1007-107, N-(6-cyclohexyloxy-9H-purine-2-yl)-4-phenyl quinoline-6-amine] are 29.3%, 119%, 29.9% and 65.8%.
